Test results from patent US6737383B1, “Herbicidal oxadiazolidines” (priority 1999, dated 2004).

Key:
bedstraw = experiment: Test B pre/postemergence bedstraw; format: in vivo, Galium aparine; conditions: Preemergence
Method in brief: (§1)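 Response is a visual 0-to-10 score relative to untreated plants, where 0 means no effect and 10 means complete control, taken twelve to sixteen days after application. Treatments went onto soil at planting and onto foliage of 1- to 4-leaf plants, using a surfactant-containing non-phytotoxic solvent.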

blackgrass = experiment: Test B pre/postemergence blackgrass; format: in vivo, Alopecurus myosuroides
Method in brief: as §1

surinam grass = experiment: Test B pre/postemergence surinam grass; format: in vivo, Brachiaria decumbens
Method in brief: as §1

cocklebur = experiment: Test B pre/postemergence cocklebur; format: in vivo, Xanthium strumarium
Method in brief: as §1

corn = experiment: Test B pre/postemergence corn; format: in vivo, Zea mays
Method in brief: as §1

crabgrass = experiment: Test B pre/postemergence crabgrass; format: in vivo, Digitaria sanguinalis
Method in brief: as §1

giant foxtail = experiment: Test B pre/postemergence giant foxtail; format: in vivo, Setaria faberii
Method in brief: as §1

morningglory = experiment: Test B pre/postemergence morningglory; format: in vivo, Ipomoea hederacea
Method in brief: as §1

pigweed = experiment: Test B pre/postemergence pigweed; format: in vivo, Amaranthus retroflexus
Method in brief: as §1

rape = experiment: Test B pre/postemergence rape; format: in vivo, Brassica napus
Method in brief: as §1

soybean = experiment: Test B pre/postemergence soybean; format: in vivo, Glycine max
Method in brief: as §1

sugar beet = experiment: Test B pre/postemergence sugar beet; format: in vivo, Beta vulgaris
Method in brief: as §1

velvetleaf = experiment: Test B pre/postemergence velvetleaf; format: in vivo, Abutilon theophrasti
Method in brief: as §1

wheat = experiment: Test B pre/postemergence wheat; format: in vivo, Triticum aestivum
Method in brief: as §1

wild oat = experiment: Test B pre/postemergence wild oat; format: in vivo, Avena fatua
Method in brief: as §1

purple nutsedge = experiment: Test B pre/postemergence purple nutsedge; format: in vivo, Cyperus rotundus
Method in brief: as §1

[1] = Postemergence, Rate 125 g/ha, scale 0 to 10, 0 is no effect, 10 is complete control
[2] = Postemergence, Rate 500 g/ha, scale 0 to 10, 0 is no effect, 10 is complete control
[3] = Preemergence, Rate 62 g/ha, scale 0 to 10 (0 no effect, 10 complete control)
[4] = Preemergence, Rate 125 g/ha, scale 0 to 10, 0 is no effect, 10 is complete control
[5] = Preemergence, Rate 500 g/ha, scale of 0 to 10 where 0 is no effect and 10 is complete control
[6] = Postemergence, Rate 62 g/ha, scale of 0 to 10, 0 is no effect, 10 is complete control
[7] = Rate 250 g/ha, Postemergence, scale of 0 to 10 where 0 is no effect and 10 is complete control

Which results are given for `COCn1c(=O)on(C(=O)N(c2ccc(Cl)cc2)C(C)C)c1=O` [Compound 533]?
Bedstraw plant response rating (bedstraw; Rate 62 g/ha, scale 0 to 10 (0 no effect, 10 complete control)): 0; Bedstraw plant response rating (bedstraw; Rate 125 g/ha, scale 0 to 10, 0 is no effect, 10 is complete control): 0; Bedstraw plant response rating (0 to 10 scale) (bedstraw; Rate 250 g/ha): 0; Bedstraw plant response rating (bedstraw; Rate 500 g/ha, scale of 0 to 10 where 0 is no effect and 10 is complete control): 0; Blackgrass plant response rating (blackgrass; [1]): 2; Plant response rating, Blackgrass (blackgrass; [2]): 7; Blackgrass plant response rating (blackgrass; [3]): 4; Blackgrass plant response rating (blackgrass; [4]): 8; Blackgrass plant response rating (0 to 10 scale) (blackgrass; Preemergence, Rate 250 g/ha): 9; Blackgrass plant response rating (blackgrass; [5]): 9; B. signalgrass plant response rating (surinam grass; [6]): 0; B. signalgrass plant response rating (surinam grass; [1]): 0; Plant response rating, B. signalgrass (surinam grass; [2]): 4; B. signalgrass plant response rating (surinam grass; [3]): 2; B. signalgrass plant response rating (surinam grass; [4]): 3; B. signalgrass plant response rating (0 to 10 scale, 0 is no effect, 10 is complete control) (surinam grass; Preemergence, Rate 250 g/ha): 9; B. signalgrass plant response rating (surinam grass; [5]): 9; Cocklebur plant response rating (cocklebur; [6]): 2; Cocklebur plant response rating (cocklebur; [1]): 2; Plant response rating, Cocklebur (cocklebur; [2]): 4; Cocklebur plant response rating (cocklebur; [3]): 0; Cocklebur plant response rating (cocklebur; [4]): 0; Cocklebur plant response rating (0 to 10 scale) (cocklebur; Preemergence, Rate 250 g/ha): 0; Cocklebur plant response rating (cocklebur; [5]): 0; Plant response rating, Cocklebur (cocklebur; [7]): 2; Corn plant response rating (corn; [6]): 0; Corn plant response rating (corn; [1]): 0; Plant response rating, Corn (corn; [2]): 0; Corn plant response rating (corn; [3]): 0; Corn plant response rating (corn; [4]): 0; Corn plant response rating (0 to 10 scale) (corn; Preemergence, Rate 250 g/ha): 0; Corn plant response rating (corn; [5]): 6; Plant response rating, Corn (corn; [7]): 0; Crabgrass plant response rating (crabgrass; [6]): 3; Crabgrass plant response rating (crabgrass; [1]): 8; Plant response rating, Crabgrass (crabgrass; [2]): 9; Crabgrass plant response rating (crabgrass; [3]): 9; Crabgrass plant response rating (crabgrass; [4]): 10; Crabgrass plant response rating (0 to 10 scale) (crabgrass; Preemergence, Rate 250 g/ha): 10; Crabgrass plant response rating (crabgrass; [5]): 10; Plant response rating, Crabgrass (crabgrass; [7]): 9; Giant foxtail plant response rating (giant foxtail; [6]): 8; Giant foxtail plant response rating (giant foxtail; [1]): 8; Plant response rating, Giant foxtail (giant foxtail; [2]): 9; Giant foxtail plant response rating (giant foxtail; [3]): 9; Giant foxtail plant response rating (giant foxtail; [4]): 10; Giant foxtail plant response rating (0 to 10 scale) (giant foxtail; Preemergence, Rate 250 g/ha): 10; Giant foxtail plant response rating (giant foxtail; [5]): 10; Plant response rating, Giant foxtail (giant foxtail; [7]): 9; Morningglory plant response rating (morningglory; [6]): 4; Morningglory plant response rating (morningglory; [1]): 4; Plant response rating, Morningglory (morningglory; [2]): 7; Morningglory plant response rating (morningglory; [3]): 0; Morningglory plant response rating (morningglory; [4]): 0; Morningglory plant response rating (0 to 10 scale) (morningglory; Preemergence, Rate 250 g/ha): 0; Morningglory plant response rating (morningglory; [5]): 0; Plant response rating, Morningglory (morningglory; [7]): 7; Redroot pigweed plant response rating (pigweed; [6]): 9; Redroot pigweed plant response rating (pigweed; [1]): 9; Plant response rating, Redroot pigweed (pigweed; [2]): 9; Redroot pigweed plant response rating (pigweed; [3]): 8; Redroot pigweed plant response rating (pigweed; [4]): 8; Redroot pigweed plant response rating (0 to 10 scale) (pigweed; Preemergence, Rate 250 g/ha): 8; Redroot pigweed plant response rating (pigweed; [5]): 8; Rape plant response rating (rape; [6]): 0; Rape plant response rating (rape; [1]): 0; Plant response rating, Rape (rape; [2]): 4; Rape plant response rating (rape; [3]): 0; Rape plant response rating (rape; [4]): 0; Rape plant response rating (0 to 10 scale) (rape; Preemergence, Rate 250 g/ha): 7; Rape plant response rating (rape; [5]): 7; Soybean plant response rating (soybean; [6]): 4; Soybean plant response rating (soybean; [1]): 4; Plant response rating, Soybean (soybean; [2]): 4; Soybean plant response rating (soybean; [3]): 0; Soybean plant response rating (soybean; [4]): 0; Soybean plant response rating (0 to 10 scale) (soybean; Preemergence, Rate 250 g/ha): 0; Soybean plant response rating (soybean; [5]): 0; Plant response rating, Soybean (soybean; [7]): 4; Sugarbeets plant response rating (sugar beet; [6]): 0; Sugarbeets plant response rating (sugar beet; [1]): 0; Plant response rating, Sugarbeets (sugar beet; [2]): 4; Sugarbeets plant response rating (sugar beet; [3]): 3; Sugarbeets plant response rating (sugar beet; [4]): 5; Sugarbeets plant response rating (0 to 10 scale) (sugar beet; Preemergence, Rate 250 g/ha): 7; Sugarbeets plant response rating (sugar beet; [5]): 7; Velvetleaf plant response rating (velvetleaf; [6]): 0; Velvetleaf plant response rating (velvetleaf; [1]): 4; Plant response rating, Velvetleaf (velvetleaf; [2]): 8; Velvetleaf plant response rating (velvetleaf; [3]): 0; Velvetleaf plant response rating (velvetleaf; [4]): 0; Velvetleaf plant response rating (0 to 10 scale) (velvetleaf; Preemergence, Rate 250 g/ha): 5; Velvetleaf plant response rating (velvetleaf; [5]): 5; Plant response rating, Velvetleaf (velvetleaf; [7]): 4; Wheat plant response rating (wheat; [6]): 0; Wheat plant response rating (wheat; [1]): 0; Plant response rating, Wheat (wheat; [2]): 2; Wheat plant response rating (wheat; [3]): 0; Wheat plant response rating (wheat; [4]): 0; Wheat plant response rating (0 to 10 scale) (wheat; Preemergence, Rate 250 g/ha): 0; Wheat plant response rating (wheat; [5]): 0; Wild oats plant response rating (wild oat; [6]): 0; Wild oats plant response rating (wild oat; [1]): 0; Plant response rating, Wild oats (wild oat; [2]): 0; Wild oats plant response rating (wild oat; [3]): 0; Wild oats plant response rating (wild oat; [4]): 0; Wild oats plant response rating (0 to 10 scale) (wild oat; Preemergence, Rate 250 g/ha): 9; Wild oats plant response rating (wild oat; [5]): 9; Nutsedge plant response rating (purple nutsedge; [6]): 0; Nutsedge plant response rating (purple nutsedge; [1]): 0; Plant response rating, Nutsedge (purple nutsedge; [2]): 0; Nutsedge plant response rating (purple nutsedge; [3]): 0; Nutsedge plant response rating (purple nutsedge; [4]): 0; Nutsedge plant response rating (purple nutsedge; [5]): 0; Plant response rating, Nutsedge (purple nutsedge; [7]): 0
